Measurements taken from ChEMBL document CHEMBL1201862, “PubChem BioAssay data set” (2004).
Calls of active or inactive are those of the source.

Key:
INS1 = experiment: INS-1E survival protection against cytokine death – cell-based, luminescence, retest, dose response (AID 449756); format: functional; details: Rattus norvegicus;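 also: cell death triggered by IL-1 beta plus TNF-alpha plus IFN-gamma mixture; protective hits raise ATP signal compared with cytokine alone wells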
Melanocortin receptor 4 = Melanocortin receptor 4 (Homo sapiens, UniProt P32245); experiment: inhibitors of MC4R cAMP signaling – cell-based, TR-FRET, biased antagonists, dose response (AID 602298); format: functional;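 also: antagonist potency against agonist-stimulated cAMP production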
Melanocortin receptor 4, sequence (P32245 whole entry): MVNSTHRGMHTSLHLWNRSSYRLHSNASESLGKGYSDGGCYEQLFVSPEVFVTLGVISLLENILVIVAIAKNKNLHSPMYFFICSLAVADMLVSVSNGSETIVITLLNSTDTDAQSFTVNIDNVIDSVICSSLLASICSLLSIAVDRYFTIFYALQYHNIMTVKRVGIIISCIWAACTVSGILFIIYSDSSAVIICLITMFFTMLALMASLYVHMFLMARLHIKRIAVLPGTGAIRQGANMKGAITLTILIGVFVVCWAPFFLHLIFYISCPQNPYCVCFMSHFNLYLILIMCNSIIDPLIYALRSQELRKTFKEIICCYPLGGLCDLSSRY

Fatty acid synthase [1] = target: T1, Fatty acid synthase (Homo sapiens, UniProt P49327); experiment: inhibition of human FAS-TE enzyme activity – biochemical, endpoint fluorescence intensity, uHTS hits, dose response (AID 624327); format: functional;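 also: fluorescence from hydrolysis of an O-methyl fluorescein acyl ester substrate by the enzyme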
T1 sequence (P49327 whole entry): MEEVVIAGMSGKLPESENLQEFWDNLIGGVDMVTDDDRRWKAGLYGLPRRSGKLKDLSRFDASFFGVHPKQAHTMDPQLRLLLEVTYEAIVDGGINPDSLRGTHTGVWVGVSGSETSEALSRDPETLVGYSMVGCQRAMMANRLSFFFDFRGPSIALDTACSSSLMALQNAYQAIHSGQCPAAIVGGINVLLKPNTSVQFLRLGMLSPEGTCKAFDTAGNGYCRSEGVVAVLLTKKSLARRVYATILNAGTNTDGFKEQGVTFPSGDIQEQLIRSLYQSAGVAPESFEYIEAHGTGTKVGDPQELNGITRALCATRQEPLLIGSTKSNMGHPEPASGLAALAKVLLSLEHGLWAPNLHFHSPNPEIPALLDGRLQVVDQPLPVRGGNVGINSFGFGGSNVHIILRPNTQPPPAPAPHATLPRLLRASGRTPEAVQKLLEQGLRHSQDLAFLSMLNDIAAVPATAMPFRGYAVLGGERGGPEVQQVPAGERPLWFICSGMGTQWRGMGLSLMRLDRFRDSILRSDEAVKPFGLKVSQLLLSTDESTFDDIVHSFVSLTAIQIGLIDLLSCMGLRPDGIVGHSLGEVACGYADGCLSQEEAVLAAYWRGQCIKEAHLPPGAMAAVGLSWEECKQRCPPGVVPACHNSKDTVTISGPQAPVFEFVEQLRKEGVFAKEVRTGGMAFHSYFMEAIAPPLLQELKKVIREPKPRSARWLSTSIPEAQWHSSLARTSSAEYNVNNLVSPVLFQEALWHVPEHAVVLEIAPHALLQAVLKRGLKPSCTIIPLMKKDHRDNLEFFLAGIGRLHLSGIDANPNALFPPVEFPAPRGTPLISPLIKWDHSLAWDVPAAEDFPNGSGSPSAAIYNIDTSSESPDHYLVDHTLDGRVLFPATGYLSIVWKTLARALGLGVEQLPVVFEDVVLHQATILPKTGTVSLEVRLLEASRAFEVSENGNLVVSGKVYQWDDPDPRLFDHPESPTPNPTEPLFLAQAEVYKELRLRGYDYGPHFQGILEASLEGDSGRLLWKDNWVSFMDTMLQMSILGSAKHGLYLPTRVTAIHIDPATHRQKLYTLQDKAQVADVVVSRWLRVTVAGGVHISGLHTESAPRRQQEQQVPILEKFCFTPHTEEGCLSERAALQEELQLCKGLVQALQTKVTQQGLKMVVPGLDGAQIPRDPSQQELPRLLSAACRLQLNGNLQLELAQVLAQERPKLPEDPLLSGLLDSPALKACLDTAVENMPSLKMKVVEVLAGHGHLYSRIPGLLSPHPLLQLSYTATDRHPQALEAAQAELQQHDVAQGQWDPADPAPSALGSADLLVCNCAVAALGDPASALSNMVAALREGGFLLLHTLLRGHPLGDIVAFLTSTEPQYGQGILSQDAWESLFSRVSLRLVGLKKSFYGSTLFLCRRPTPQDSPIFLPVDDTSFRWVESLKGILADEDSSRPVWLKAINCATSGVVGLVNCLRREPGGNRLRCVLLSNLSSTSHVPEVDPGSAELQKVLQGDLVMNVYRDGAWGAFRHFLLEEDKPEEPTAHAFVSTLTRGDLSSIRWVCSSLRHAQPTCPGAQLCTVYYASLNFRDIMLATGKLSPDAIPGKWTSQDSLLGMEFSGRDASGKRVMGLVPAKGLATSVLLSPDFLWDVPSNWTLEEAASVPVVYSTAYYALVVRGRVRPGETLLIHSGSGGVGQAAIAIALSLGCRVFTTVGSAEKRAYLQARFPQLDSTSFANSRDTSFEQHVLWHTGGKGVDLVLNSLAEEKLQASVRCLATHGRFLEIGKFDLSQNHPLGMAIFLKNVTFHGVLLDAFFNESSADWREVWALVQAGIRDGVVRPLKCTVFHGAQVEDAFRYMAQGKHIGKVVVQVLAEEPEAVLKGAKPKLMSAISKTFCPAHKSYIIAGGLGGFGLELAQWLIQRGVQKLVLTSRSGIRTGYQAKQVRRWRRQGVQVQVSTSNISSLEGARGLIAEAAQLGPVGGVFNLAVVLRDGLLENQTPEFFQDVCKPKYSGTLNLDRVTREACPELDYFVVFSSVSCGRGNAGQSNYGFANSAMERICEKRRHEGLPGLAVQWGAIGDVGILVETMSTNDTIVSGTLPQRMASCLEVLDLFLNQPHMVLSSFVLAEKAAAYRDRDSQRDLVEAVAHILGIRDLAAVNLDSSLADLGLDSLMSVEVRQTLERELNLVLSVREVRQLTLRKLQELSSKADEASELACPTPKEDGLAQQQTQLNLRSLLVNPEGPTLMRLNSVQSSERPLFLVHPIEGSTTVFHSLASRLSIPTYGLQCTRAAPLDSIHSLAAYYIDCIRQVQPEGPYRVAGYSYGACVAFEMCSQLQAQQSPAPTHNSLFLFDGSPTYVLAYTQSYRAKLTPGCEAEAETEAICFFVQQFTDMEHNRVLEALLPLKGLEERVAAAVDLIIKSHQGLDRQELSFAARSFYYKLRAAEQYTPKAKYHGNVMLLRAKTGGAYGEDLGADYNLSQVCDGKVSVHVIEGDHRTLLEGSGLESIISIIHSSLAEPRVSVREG

[2] = cAMP pathway inhibition in counterscreen cell line – TR-FRET cAMP detection, counter-screen for MC4R biased antagonist project, dose response (AID 602305); format: functional, cell-based;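 also: U2OS cells stimulated with forskolin near its EC80 as the cAMP inducer; potency is for inhibition of forskolin-stimulated cAMP signaling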
Fatty acid synthase [3] = target: T1, Fatty acid synthase; experiment: inhibition of human FAS-TE enzyme activity – biochemical, kinetic fluorescence intensity, dose response (AID 624326); format: functional;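 also: rate of fluorescence rise from hydrolysis of a fluorogenic O-methyl fluorescein ester substrate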
[4] = alpha-synuclein stem-loop luciferase translation blockers – H4 neuroglioma cells, luminescence, confirmation (AID 1988); format: functional, cell-based
[5] = non-specific 3'UTR reporter inhibition in Clone20-Shn3RL – cell-based, Renilla luciferase, cherry-picked, counter-screen for Shn3 inhibitor project, dose response (AID 624133); format: functional
CHO = CHO cell viability loss, potency – luminescence, cytotoxicity control for TLR9-MyD88 binding inhibitor project, dose response (AID 588339); format: functional, cell-based, hamster; details: Cricetulus griseus;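 also: CHO cells stably coexpressing TLR9 and MyD88 fusions from primary screen; compound exposure lasted 48 hours before viability readout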
[6] = target: T2, Sentrin-specific protease 7 (Homo sapiens, UniProt Q9BQF6); format: functional;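 also: Luminescence-based dose-response confirmation of ultra-high-throughput screening hits, measuring inhibition of SENP7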
T2 sequence (Q9BQF6 whole entry): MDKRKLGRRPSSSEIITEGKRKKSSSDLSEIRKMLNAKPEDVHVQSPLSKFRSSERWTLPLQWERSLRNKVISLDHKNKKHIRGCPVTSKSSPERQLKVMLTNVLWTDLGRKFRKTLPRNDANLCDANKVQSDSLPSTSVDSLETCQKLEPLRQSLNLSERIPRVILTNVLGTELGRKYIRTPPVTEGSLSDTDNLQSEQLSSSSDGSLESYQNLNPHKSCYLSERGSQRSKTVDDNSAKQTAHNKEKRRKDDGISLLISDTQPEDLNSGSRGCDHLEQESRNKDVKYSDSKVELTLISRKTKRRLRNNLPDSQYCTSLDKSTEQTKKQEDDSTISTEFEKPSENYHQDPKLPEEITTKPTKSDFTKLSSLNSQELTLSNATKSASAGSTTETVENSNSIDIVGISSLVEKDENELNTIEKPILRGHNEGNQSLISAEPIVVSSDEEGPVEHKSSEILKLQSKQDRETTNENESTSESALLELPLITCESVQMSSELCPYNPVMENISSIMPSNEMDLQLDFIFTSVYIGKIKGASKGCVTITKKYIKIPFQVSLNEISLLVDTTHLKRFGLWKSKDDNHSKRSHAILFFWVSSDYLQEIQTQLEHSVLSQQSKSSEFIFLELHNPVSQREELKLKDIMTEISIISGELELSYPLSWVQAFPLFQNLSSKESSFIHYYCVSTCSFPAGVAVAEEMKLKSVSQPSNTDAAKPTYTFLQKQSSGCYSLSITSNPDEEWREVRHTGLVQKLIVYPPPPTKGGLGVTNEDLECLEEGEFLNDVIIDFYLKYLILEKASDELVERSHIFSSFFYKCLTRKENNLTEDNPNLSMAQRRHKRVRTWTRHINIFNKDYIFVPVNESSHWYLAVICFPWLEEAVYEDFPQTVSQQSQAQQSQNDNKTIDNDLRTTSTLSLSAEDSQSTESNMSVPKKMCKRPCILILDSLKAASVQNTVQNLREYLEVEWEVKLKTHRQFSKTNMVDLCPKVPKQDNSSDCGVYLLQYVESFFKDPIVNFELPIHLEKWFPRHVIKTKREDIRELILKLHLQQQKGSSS

[7] = target: T3, RNA-binding protein pos-1 (Caenorhabditis elegans, UniProt G5EF15); experiment: disruptors of C. elegans POS-1 RNA interaction – biochemical, fluorescence polarization, dose response (AID 1964);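 also: purified POS-1 fused to maltose binding protein made in E. coli; potency of compounds blocking POS-1 binding to fluorescent RNA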
T3 sequence (G5EF15 whole entry): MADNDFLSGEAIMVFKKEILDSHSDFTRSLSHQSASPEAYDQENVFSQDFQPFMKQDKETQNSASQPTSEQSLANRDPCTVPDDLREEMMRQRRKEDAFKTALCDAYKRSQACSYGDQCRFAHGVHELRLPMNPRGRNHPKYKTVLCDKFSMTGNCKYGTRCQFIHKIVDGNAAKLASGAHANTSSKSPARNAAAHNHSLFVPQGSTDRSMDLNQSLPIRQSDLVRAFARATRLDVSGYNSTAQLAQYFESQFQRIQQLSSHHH

[8] = target: T4, Sentrin-specific protease 6 (Homo sapiens, UniProt Q9GZR1); format: functional;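 also: Luminescence-based dose-response confirmatory assay of SENP6 inhibition, following up an ultra-high-throughput screen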
T4 sequence (Q9GZR1 whole entry): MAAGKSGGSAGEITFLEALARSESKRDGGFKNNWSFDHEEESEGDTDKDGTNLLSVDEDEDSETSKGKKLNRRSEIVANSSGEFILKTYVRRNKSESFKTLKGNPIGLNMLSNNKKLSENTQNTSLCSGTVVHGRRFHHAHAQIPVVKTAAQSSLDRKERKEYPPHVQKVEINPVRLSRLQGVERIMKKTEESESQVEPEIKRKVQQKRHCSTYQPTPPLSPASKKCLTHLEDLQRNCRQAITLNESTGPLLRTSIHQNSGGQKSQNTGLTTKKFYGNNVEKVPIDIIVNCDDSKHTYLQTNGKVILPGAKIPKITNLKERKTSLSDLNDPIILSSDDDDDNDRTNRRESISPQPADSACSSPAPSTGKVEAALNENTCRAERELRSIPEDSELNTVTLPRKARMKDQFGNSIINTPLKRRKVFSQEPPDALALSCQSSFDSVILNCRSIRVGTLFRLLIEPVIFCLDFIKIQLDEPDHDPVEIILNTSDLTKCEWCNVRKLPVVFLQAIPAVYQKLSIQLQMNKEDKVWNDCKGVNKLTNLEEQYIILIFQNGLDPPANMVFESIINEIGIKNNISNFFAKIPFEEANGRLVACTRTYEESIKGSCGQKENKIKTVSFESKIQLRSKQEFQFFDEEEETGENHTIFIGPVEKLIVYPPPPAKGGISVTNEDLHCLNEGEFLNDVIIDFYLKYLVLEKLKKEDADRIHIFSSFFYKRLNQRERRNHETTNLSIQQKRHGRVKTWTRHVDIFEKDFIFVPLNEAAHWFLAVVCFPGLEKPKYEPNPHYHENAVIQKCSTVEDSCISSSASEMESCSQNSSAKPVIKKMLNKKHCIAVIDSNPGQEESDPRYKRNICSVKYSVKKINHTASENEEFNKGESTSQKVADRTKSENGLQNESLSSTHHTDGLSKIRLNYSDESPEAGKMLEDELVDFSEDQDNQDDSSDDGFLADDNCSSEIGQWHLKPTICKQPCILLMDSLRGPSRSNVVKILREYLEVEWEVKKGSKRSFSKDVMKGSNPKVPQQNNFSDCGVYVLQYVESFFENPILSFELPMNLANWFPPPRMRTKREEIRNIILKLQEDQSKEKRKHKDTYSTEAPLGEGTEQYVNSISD

[9] = microbe, parasite or virus in culture; format: functional; details: Mycobacterium tuberculosis

Q: Which results are given for `CCC1CCCCN1S(=O)(=O)c1ccc(NC(=O)c2nc(S(C)(=O)=O)ncc2Cl)cc1` (centres undefined)?
A: AC50 (INS1): 5.24 µM (active); IC50 (Melanocortin receptor 4): 1.17 µM (active); IC50 (Fatty acid synthase [1]): 5.75 µM (active); IC50 [2]: > 64.6 µM (inactive); IC50 (Fatty acid synthase [3]): 4.03 µM (active); EC50 [4]: 9.69 µM (active); AC50 [5]: 2.46 µM (active); IC50 (CHO): 1.91 µM (active)

Q: With `CCCC[n+]1ccn(C2=C([N-]S(=O)(=O)c3ccc(Cl)cc3)C(=O)c3ccccc3C2=O)c1` as the compound, how does the IC50 [6] read?
A: 22 µM (active)

Q: What about the EC50 [7] of the same compound?
A: > 300 µM (inconclusive)

Q: And the IC50 [8]?
A: 12.4 µM (active)

Q: Which CC50 [9] does the source give for `CC(=O)c1cccc2c1N=C(c1[nH]c3ccccc3c1O)C2=O` here?
A: > 40 µM (active)

Q: What about the IC50 [6] of the same compound?
A: 15.7 µM (active)

Q: What about the IC50 [8] of the same compound?
A: 13.2 µM (active)
